Test [1] has as its target T1, mGLP-1R (Mus musculus, UniProt O35659).
T1 construct: expressed in transfected cells; host or cells: HEK293
T1 sequence (O35659 22-463): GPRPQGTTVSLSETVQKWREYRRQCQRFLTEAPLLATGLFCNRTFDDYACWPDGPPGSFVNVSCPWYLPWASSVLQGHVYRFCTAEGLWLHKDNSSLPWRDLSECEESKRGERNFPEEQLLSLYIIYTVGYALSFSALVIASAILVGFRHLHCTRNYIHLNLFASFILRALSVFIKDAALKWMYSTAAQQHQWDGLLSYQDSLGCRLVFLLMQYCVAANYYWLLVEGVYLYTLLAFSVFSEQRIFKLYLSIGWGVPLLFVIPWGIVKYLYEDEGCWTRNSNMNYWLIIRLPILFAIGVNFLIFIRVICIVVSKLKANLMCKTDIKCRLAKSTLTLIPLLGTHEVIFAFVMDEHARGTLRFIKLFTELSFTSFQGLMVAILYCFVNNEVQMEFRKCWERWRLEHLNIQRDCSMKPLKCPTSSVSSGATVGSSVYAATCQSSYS
Briefly: GLP-1R agonist activity, cAMP in transfected HEK293 cells. The class given is cell-based.
Procedure: HEK293 cells were co-transfected with cDNA encoding GLP-1R or GIPR. In a test for determining the compound, the cells were inoculated in a 96-well plate 2 h in advance, the polypeptide compound was dissolved with DMSO, and diluted to different multiples with a culture medium containing 0.1% bovine serum albumin and added to the co-transfected cells. After the cells were incubated for 20 min, fluorescence values were determined through microplate reader of an ELISA kit of the Cisbo Company, a standard curve was established to convert the fluorescence values into corresponding cAMP values, and the EC50 value of the compound was calculated through nonlinear regression of Graphpad Prism 5.0 software.

The target in test [2] is T2, mGIPR (Mus musculus, UniProt Q0P543).
T2 construct: expressed in transfected cells; host or cells: HEK293
T2 sequence (Q0P543 19-460): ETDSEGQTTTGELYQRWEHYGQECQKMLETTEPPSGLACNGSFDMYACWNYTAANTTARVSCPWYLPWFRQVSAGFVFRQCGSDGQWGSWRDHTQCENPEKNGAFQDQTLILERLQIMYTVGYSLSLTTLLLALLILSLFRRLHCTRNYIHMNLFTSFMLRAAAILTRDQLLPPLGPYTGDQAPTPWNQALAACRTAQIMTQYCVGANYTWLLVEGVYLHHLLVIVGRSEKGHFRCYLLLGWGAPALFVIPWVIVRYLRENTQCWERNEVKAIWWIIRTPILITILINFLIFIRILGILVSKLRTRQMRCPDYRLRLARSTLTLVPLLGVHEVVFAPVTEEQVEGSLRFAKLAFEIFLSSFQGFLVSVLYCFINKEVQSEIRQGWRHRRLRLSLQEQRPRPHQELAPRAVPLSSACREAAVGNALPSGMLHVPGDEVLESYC
Briefly: GIPR agonist activity, cAMP in transfected HEK293 cells. In kind it is cell-based.
Procedure: HEK293 cells were co-transfected with cDNA encoding GLP-1R or GIPR. In a test for determining the compound, the cells were inoculated in a 96-well plate 2 h in advance, the polypeptide compound was dissolved with DMSO, and diluted to different multiples with a culture medium containing 0.1% bovine serum albumin and added to the co-transfected cells.

Read-outs that look alike come from different tables or passages of the source. Where a SMILES comes first, the peptide text is derived from it.

One may read the EC50 as the midpoint of the concentration-response curve. For the compound `CC[C@H](C)[C@H](NC(=O)[C@H](CC(C)C)NC(=O)[C@H](Cc1c[nH]c2ccccc12)NC(=O)[C@H](CCC(N)=O)NC(=O)[C@@H](NC(=O)[C@H](Cc1ccccc1)NC(=O)[C@H](C)NC(=O)[C@H](CCCCNC(=O)COCCOCCNC(=O)COCCOCCNC(=O)CC[C@H](NC(=O)CCCCCCCCCCCCCCCCC(=O)O)C(=O)O)NC(=O)[C@H](CCC(N)=O)NC(=O)[C@H](C)NC(=O)[C@@H](NC(=O)[C@H](CCCCN)NC(=O)[C@H](CC(=O)O)NC(=O)[C@H](CC(C)C)NC(=O)C1(NC(=O)[C@@H](NC(=O)[C@H](CO)NC(=O)[C@H](Cc2ccc(O)cc2)NC(=O)[C@H](CC(=O)O)NC(=O)[C@H](CO)NC(=O)[C@@H](NC(=O)[C@H](Cc2ccccc2)NC(=O)[C@@H](NC(=O)CNC(=O)[C@H](CCC(=O)O)NC(=O)C2(NC(=O)[C@@H](N)Cc3ccc(O)cc3)CCCC2)[C@@H](C)O)[C@@H](C)O)[C@@H](C)CC)CCCC1)[C@@H](C)CC)C(C)C)C(=O)N[C@@H](C)C(=O)NCC(=O)NCC(=O)N1CCC[C@H]1C(=O)N[C@@H](CO)C(=O)N[C@@H](CO)C(=O)NCC(=O)N[C@@H](C)C(=O)N1CCC[C@H]1C(=O)N1CCC[C@H]1C(=O)N1CCC[C@H]1C(=O)N[C@@H](CO)C(N)=O` [ID NO: 3], the EC50 in test [1] was 3.96 pM; in test [2] it was 1.49 pM.
In the case of `CCCCCCCCCCCCCCCC(=O)N[C@@H](CCC(=O)NCCCC[C@H](NC(=O)[C@H](CCC(N)=O)NC(=O)[C@H](C)NC(=O)[C@@H](NC(=O)[C@H](CCCCN)NC(=O)[C@H](CC(=O)O)NC(=O)[C@H](CC(C)C)NC(=O)[C@@H](NC(=O)[C@@H](NC(=O)[C@H](CO)NC(=O)[C@H](Cc1ccc(O)cc1)NC(=O)[C@H](CC(=O)O)NC(=O)[C@H](CO)NC(=O)[C@@H](NC(=O)[C@H](Cc1ccccc1)NC(=O)[C@@H](NC(=O)CNC(=O)[C@H](CCC(=O)O)NC(=O)[C@@H](NC(=O)[C@@H](N)Cc1ccc(O)cc1)C(C)C)[C@@H](C)O)[C@@H](C)O)[C@@H](C)CC)C(C)C)[C@@H](C)CC)C(=O)N[C@@H](C)C(=O)N[C@@H](Cc1ccccc1)C(=O)N[C@H](C(=O)N[C@@H](CCC(N)=O)C(=O)N[C@@H](Cc1c[nH]c2ccccc12)C(=O)N[C@@H](CC(C)C)C(=O)N[C@H](C(=O)N[C@@H](C)C(=O)NCC(=O)NCC(=O)N1CCC[C@H]1C(=O)N[C@@H](CO)C(=O)N[C@@H](CO)C(=O)NCC(=O)N[C@@H](C)C(=O)N1CCC[C@H]1C(=O)N1CCC[C@H]1C(=O)N1CCC[C@H]1C(=O)N[C@@H](CO)C(N)=O)[C@@H](C)CC)C(C)C)C(=O)O` [ID NO: 12] (HELM PEPTIDE1{Y.V.E.G.T.F.T.S.D.Y.S.I.V.L.D.K.I.A.Q.K.A.F.V.Q.W.L.I.A.G.G.P.S.S.G.A.P.P.P.S.[am]}|PEPTIDE2{[CCCCCCCCCCCCCCCC(=O)[*:2]].[gGlu]}$PEPTIDE1,PEPTIDE2,20:R3-2:R2$$$V2.0), the EC50 was 56.1 pM in test [1] (HEK293 cells transfected with GLP-1R, cAMP, 20 min incubation, read-out: mGLP-1R EC50) and 8.79 pM in test [2] (HEK293 cells transfected with GIPR, cAMP, 20 min incubation, read-out: mGIPR EC50).

The values are drawn from patent US20220251163A1 (Sinopep-Allsino Biopharmaceutical Co., Ltd., priority 2019, published 2022).
